Assay results as given in patent US7173027B2, “Receptor selective cannabimimetic aminoalkylindoles” (University of Connecticut, priority 2001, dated 2007).
Where two headings read alike, the source gives them in different places.

How the values were obtained:
CB1 receptor = molecular target: T1, CB1 receptor (Rattus norvegicus, UniProt P20272); assay: CB1 receptor binding, rat forebrain membranes, [3H]CP-55,940 displacement
T1 construct: membranes were prepared from rat forebrain membranes; from tissue; host or cells: rat forebrain membranes
Method: (§1) The prepared cannabinoid compounds were tested for CB2 receptor binding affinity and for CB1 receptor affinity (to determine selectivity for the CB2 receptor). As used herein, “binding affinity” is represented by the IC50 value which is the concentration of an analog required to occupy the 50% of the total number (Bmax) of the receptors. The lower the IC50 value, the higher the binding affinity. […] The binding affinities (Ki) are expressed in nanomoles (nM).
For the CB1 receptor-binding studies, membranes were prepared from rat forebrain membranes according to the procedure of P. R. Dodd et al; A Rapid Method for Preparing Synaptosomes: Comparison with Alternative Procedures, Brain Res., 107–118 (1981). The binding of the novel analogues to the CB1 cannabinoid receptor was assessed as described in W. A. Devane et al; Determination and Characterization of a Cannabinoid Receptor in a Rat Brain, Mol. Pharmacol., 34, 605–613 (1988) and A. Charalambous et al; “5′-azido ^8−-THC: A Novel Photoaffinity Label for the Cannabinoid Receptor”, J. Med. Chem., 35, 3076–3079 (1992) with the following changes. The above articles are incorporated by reference herein.
Membranes, previously frozen at −80° C., were thawed on ice. To the stirred suspension was added three volumes of TME (25 mM Tris-HCl buffer, 5 mM MgCl2 and 1 mM EDTA) at a pH 7.4.The suspension was incubated at 4° C. for 30 min. At the end of the incubation, the membranes were pelleted and washed three times with TME.
(§2) The treated membranes were subsequently used in the binding assay described below. Approximately 30 μg of membranes were incubated in silanized 96-well microtiter plate with TME containing 0.1% essentially fatty acid-free bovine serum albumin (BSA), 0.8 nM [^3H] CP-55,940, and various concentrations of test materials at 30° C. for 1 hour. The samples were immediately filtered using a Packard Filtermate 196 and Whatman GF/C filterplates and washed with wash buffer (TME) containing 0.5% BSA. Radioactivity was detected using MicroScint 20 scintillation cocktail added directly to the dried filterplates, and the filterplates were counted using a Packard Instruments Top-Count. Nonspecific binding was assessed using 100 nM CP-55,940. Data collected from three independent experiments performed with duplicate determinations was normalized between 100% and 0% specific binding for [^3H] CP-55,940, determined using buffer and 100 nM CP-55,940.The normalized data was analyzed using a 4-parameter nonlinear logistic equation to yield IC50 values. Data from at least two independent experiments performed in duplicate was used to calculate IC50 values which were converted to Ki values using the using the assumptions of Cheng et al; “Relationship Between the Inhibition Constant (Ki) and the concentration of Inhibitor which causes 50% Inhibition (IC50) of an Enzymatic Reaction”, Biochem. Pharmacol., 22, 3099–3102, (1 973), which is incorporated by reference herein.

CB2 receptor = molecular target: T2, CB2 receptor (Mus musculus, UniProt P47936); assay: CB2 receptor binding, mouse spleen membranes, [3H]CP-55,940 displacement; details: for Ki: mouse spleen membranes
T2 construct: membranes were prepared from frozen mouse spleen; from tissue; host or cells: frozen mouse spleen membranes
Method: as §1, §2
For the CB2 receptor binding studies, membranes were prepared from frozen mouse spleen essentially according to the procedure of P. R. Dodd et al; “A Rapid Method for Preparing Synaptosomes: Comparison with Alternative Procedures”, Brain Res., 226, 107–118 (1981) which is incorporated by reference herein. Silanized centrifuge tubes were used throughout to minimize receptor loss due to adsorption. The CB2 binding assay was conducted in the same manner as the CB1 binding assay. The binding affinities (Ki) were also expressed in nanomoles (nM).

human CB2 receptors = molecular target: T3, human CB2 receptors (Homo sapiens, UniProt P34972); assay: Binding affinity to human CB2 receptors, human tissue samples
T3 construct: using the below described procedure with human tissue samples; from tissue

[1] = Table 2, 0.8 nM [3H]CP-55,940, read-out: Ki nM CB1
[2] = Table 2, human CB2, read-out: Ki nM CB2 (Human)
[3] = Table 1, 0.8 nM [3H]CP-55,940, read-out: Ki nM CB1
[4] = Ki nM CB1, Table 2, 0.8 nM [3H]CP-55,940

T2 sequence (P47936 whole entry): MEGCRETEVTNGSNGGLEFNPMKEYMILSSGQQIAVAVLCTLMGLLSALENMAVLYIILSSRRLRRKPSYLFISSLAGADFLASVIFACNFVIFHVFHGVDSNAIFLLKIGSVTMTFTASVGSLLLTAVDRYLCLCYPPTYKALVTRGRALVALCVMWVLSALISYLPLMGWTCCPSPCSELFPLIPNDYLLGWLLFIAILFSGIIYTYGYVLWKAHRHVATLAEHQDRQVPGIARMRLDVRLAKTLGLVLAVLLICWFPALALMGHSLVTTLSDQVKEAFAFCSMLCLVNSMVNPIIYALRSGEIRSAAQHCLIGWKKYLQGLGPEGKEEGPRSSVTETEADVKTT
T1 sequence (P20272 whole entry): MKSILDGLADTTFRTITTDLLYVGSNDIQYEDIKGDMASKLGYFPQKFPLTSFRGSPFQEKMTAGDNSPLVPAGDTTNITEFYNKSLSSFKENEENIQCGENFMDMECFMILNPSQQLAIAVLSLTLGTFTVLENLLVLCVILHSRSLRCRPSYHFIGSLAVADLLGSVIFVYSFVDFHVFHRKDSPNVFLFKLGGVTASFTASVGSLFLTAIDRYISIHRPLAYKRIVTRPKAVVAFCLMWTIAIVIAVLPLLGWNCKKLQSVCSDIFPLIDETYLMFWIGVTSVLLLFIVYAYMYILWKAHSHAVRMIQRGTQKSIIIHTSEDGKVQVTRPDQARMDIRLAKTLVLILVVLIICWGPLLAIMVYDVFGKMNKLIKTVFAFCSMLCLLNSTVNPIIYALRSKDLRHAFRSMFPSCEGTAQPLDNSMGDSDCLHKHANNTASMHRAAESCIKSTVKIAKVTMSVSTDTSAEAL
T3 sequence (P34972 whole entry): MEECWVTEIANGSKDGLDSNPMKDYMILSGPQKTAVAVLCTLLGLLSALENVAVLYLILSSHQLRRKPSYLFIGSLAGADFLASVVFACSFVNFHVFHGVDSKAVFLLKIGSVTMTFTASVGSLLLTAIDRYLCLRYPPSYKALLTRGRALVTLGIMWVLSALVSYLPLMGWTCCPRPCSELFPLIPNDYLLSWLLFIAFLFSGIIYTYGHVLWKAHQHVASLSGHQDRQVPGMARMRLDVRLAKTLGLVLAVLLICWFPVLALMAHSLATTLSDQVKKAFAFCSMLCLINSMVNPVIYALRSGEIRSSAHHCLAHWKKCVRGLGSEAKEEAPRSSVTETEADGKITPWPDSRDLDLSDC

| SMILES | Ki (CB1 receptor; [1]) [nM] | Ki (CB2 receptor; Table 2, read-out: Ki nM CB2) [nM] | other results |
| --- | --- | --- | --- |
| CN1CCCCC1Cn1cc(C(=O)c2cccs2)c2ccccc21 (stereo not drawn) [2-39] | 41.4 | 19.5 |  |
| CN1CCCCC1Cn1cc(C(=O)c2ccccc2I)c2ccccc21 (racemic) [2-34(R,S)] | 2.89 |  | Ki (human CB2 receptors; [2]): 2.49 nM |
| CN1CCCCC1Cn1cc(C(=O)c2cncc3ccccc23)c2ccccc21 (stereo not drawn) [2-44] | 16.9 | 7.04 |  |
| CN1CCCCC1Cn1cc(C(=O)c2cc([N+](=O)[O-])ccc2I)c2ccccc21 (racemic) [2-32(R,S)] | 239 | 3.41 | Ki (human CB2 receptors; [2]): 13.6 nM |
| CN1CCCCC1Cn1cc(C(=O)c2cc(O)ccc2I)c2ccccc21 (stereo not drawn) [2-49] | 29.1 | 18.6 |  |
| CN1CCCCC1Cn1cc(C(=O)c2cc([N+](=O)[O-])ccc2I)c2ccccc21 (racemic) [2-7(R, S)] |  |  | Ki (CB1 receptor; [3]): 403 nM; Ki (human CB2 receptors; Table 1, human CB2, human tissue samples, read-out: Ki nM CB2 (human)): 1.6 nM; binding affinity to human CB2 receptors (in words) (human CB2 receptors; human tissue samples): surprisingly potent cannabinoid; selectivity for the CB2 receptor (in words) (CB2 receptor; CB2 versus CB1 binding): high selectivity for the CB2 receptor; Ki (CB2 receptor; Table 1, read-out: Ki nM CB2): 5.7 nM |
| CN1CCOCC1Cn1cc(C(=O)c2ccccc2I)c2ccccc21 (stereo not drawn) [2-28] | 27.9 | 226 |  |
| CN1CCCCC1Cn1cc(C(=O)c2ccccn2)c2ccccc21 (stereo not drawn) [2-42] | 421 | 147 |  |
| CN1CCCC[C@@H]1Cn1cc(C(=O)c2cc([N+](=O)[O-])ccc2I)c2ccccc21 [2-32(R)] |  |  | Ki (CB1 receptor; [4]): 140 nM; Ki (human CB2 receptors): 6.69 nM; Ki (CB2 receptor; Ki nM CB2, Table 2): 1.42 nM |
| CN1CCCCC1Cn1cc(C(=O)c2cnc3ccccc3c2)c2ccccc21 (stereo not drawn) [2-36] | 133 | 8.53 |  |
| CN1CCCCC1Cn1cc(C(=O)c2cc3ccccc3cn2)c2ccccc21 (stereo not drawn) [2-40] | 28.6 | 14.5 |  |
| CN1CCCCC1Cn1cc(C(=O)c2cnc3ccccc3n2)c2ccccc21 (stereo not drawn) [2-41] | 158 | 160 |  |
| CN1CCOCC1Cn1cc(C(=O)c2cc([N+](=O)[O-])ccc2I)c2ccccc21 (stereo not drawn) [2-29] | 848 | 48.4 |  |
| CN1CCCC[C@@H]1Cn1cc(C(=O)c2ccccc2I)c2ccccc21 [2-34(R)] |  |  | Ki (CB1 receptor; [4]): 1.57 nM |
| CN1CCCC[C@H]1Cn1cc(C(=O)c2ccccc2I)c2ccccc21 [2-24(S)] |  |  | Ki (CB1 receptor; [3]): 561 nM |
| O=C(c1ccccc1I)c1cn(CC2COCCN2Cc2ccccc2)c2ccccc12 (stereo not drawn) [2-25] | 1220 | 1800 |  |

| SMILES | Ki (CB1 receptor; [1]) [nM] | Ki (CB2 receptor; Table 2, read-out: Ki nM CB2) [nM] | other results |
| --- | --- | --- | --- |
| CN1CCCCC1Cn1cc(C(=O)C23CC4CC(CC(C4)C2)C3)c2ccccc21 (stereo not drawn) [2-33, 1-(N-Methyl-2-piperidinyl)methyl-3-(1-adamantanecarbonyl)-1H-indole] |  |  | Ki (CB1 receptor; [4]): 11.9 nM; Ki (human CB2 receptors): 2.32 nM; Ki (CB2 receptor; Ki nM CB2, Table 2): 4.8 nM |
| CN1CCCCC1Cn1cc(C(=O)c2cc(C#N)ccc2I)c2ccccc21 (stereo not drawn) [2-46] | 339 | 15.4 |  |
| CN1CCCCC1Cn1cc(C(=O)c2ccc3ccccc3n2)c2ccccc21 (stereo not drawn) [2-35] | 14.4 | 20.9 |  |
| CN1CCCCC1Cn1cc(C(=O)c2cc(C(=O)O)ccc2I)c2ccccc21 (stereo not drawn) [2-47] | 240 | 18.8 |  |
| CN1CCCCC1Cn1cc(C(=O)c2ccnc3ccccc23)c2ccccc21 (stereo not drawn) [2-38] | 719 | 747 |  |
| O=C(c1cccc([N+](=O)[O-])c1I)c1cn(CC2COCCN2Cc2ccccc2)c2ccccc12 (stereo not drawn) [2-27] | 2380 | 928 |  |
| CN1CCCCC1Cn1cc(C(=O)c2cc(C(N)=O)ccc2I)c2ccccc21 (stereo not drawn) [2-48] | 390 | 47.2 |  |
| CN1CCOCC1Cn1cc(C(=O)c2cccc3ccccc23)c2ccccc21 (stereo not drawn) [2-31] | 5.7 | 26.6 |  |
| O=C(c1cc([N+](=O)[O-])ccc1I)c1cn(CC2COCCN2Cc2ccccc2)c2ccccc12 (stereo not drawn) [2-26] | 4210 | 1430 |  |
| CN1CCCCC1Cn1cc(C(=O)c2cccc[n+]2[O-])c2ccccc21 (stereo not drawn) [2-43] | 8820 | 1860 |  |
| CN1CCCC[C@@H]1Cn1cc(C(=O)c2ccccc2I)c2ccccc21 [2-24(R)] |  |  | Ki (CB1 receptor; [3]): 1.8 nM |
| CN1CCCCC1Cn1cc(C(=O)c2cnccn2)c2ccccc21 (stereo not drawn) [2-37] | 3540 | 837 |  |
| CN1CCCC[C@@H]1Cn1cc(C(=O)c2cc([N+](=O)[O-])ccc2I)c2ccccc21 [2-7(R)] |  |  | Ki (CB1 receptor; Ki nM CB1, Table 1, 0.8 nM [3H]CP-55,940): 285 nM; Ki (CB2 receptor; Ki nM CB2, Table 1): 0.53 nM |
| CN1CCCCC1Cn1cc(C(=O)c2cc(C#N)ccc2I)c2ccccc21 (stereo not drawn) [2-45] | 418 | 15.8 |  |
| CN1CCCC[C@H]1Cn1cc(C(=O)c2ccccc2I)c2ccccc21 [2-34(S)] |  |  | Ki (CB1 receptor; [4]): 14.2 nM |
| CN1CCOCC1Cn1cc(C(=O)c2cccc([N+](=O)[O-])c2I)c2ccccc21 (stereo not drawn) [2-30] | 464 | 154 |  |
